Reference: PMC12736570, “The Absorption, Distribution, Excretion, and In Vitro Hepatic Microsomal Metabolism of the Novel CDK Compound XMD12 in Sprague-Dawley Rats” (Pharmaceutics, 2025)
Several values for one entry are separate records, joined by “and”; a condition that tells them apart may be missing. Equal entries are not always repeated. Where two headings read alike, the source gives them in different places.

How the values were obtained:
[1] = cited from earlier work
[2] = Metabolic stability in rat liver microsome incubation system; format: in vitro ADME; conditions: rat liver microsomes
Procedure: Rat liver microsomes (CYP450) were introduced into centrifuge tubes containing phosphate buffer. Different concentrations of the test compound were added to the experimental group, while an equal amount of buffer was added to the control group. Following a 10-min pre-incubation, NADPH was introduced to initiate the reaction, and the mixture was then incubated at 37 °C in a water bath for […]. The incubation system was composed of 10 μL of XMD12 substrate (0.5 μg/mL), 5 μL of rat liver microsomes (20 mg/mL), 20 μL of an NADPH generating system at a final concentration of 1 mM, and 465 μL of phosphate-buffered saline (pH 7.4). The NADPH generating system was prepared by mixing with 5 μL of a complementary Mix solution prior to use. This Mix solution contained MgCl2, EDTA, glucose-6-phosphate, glucose-6-phosphate dehydrogenase, and oxidized nicotinamide adenine dinucleotide phosphate (NADP^+). At intervals of 0, 5, 15, 30, 45, 60, 90, and 120 min, the reaction was halted by adding a cold acetonitrile solution containing the internal standard at a 1:2 ratio. This mixture underwent vigorous vortexing for 3 min before being centrifuged at 14,000 rpm for 10 min. The resulting supernatant was dried using nitrogen gas and subsequently reconstituted with 50% acetonitrile. After thorough vortexing for 2 min, the solution underwent a second centrifugation at 14,000 rpm for 10 min, and the supernatant was then injected into LC-MS/MS for analysis.

[3] = Plasma pharmacokinetics after single intravenous administration and gastric gavage; format: in vivo, Sprague-Dawley rats; conditions: for AUC0-t / AUC0-∞ / CL / Cmax / MRT0-t / Tmax / V / t1/2: n = 5
Procedure: Ten healthy SD rats were divided into two groups, each comprising five rats. Following a 12-h fasting period, the rats in the respective groups were administered XMD12 at dosages of 10 mg/kg via gastric gavage and 2 mg/kg via tail vein injection. The rats were anesthetized with isoflurane, and blood samples of approximately 150 uL were collected via the eye socket vein using capillaries. These samples were obtained prior to dosing (at 0 min) and at intervals of 0.083, 0.25, 0.5, 1, 1.5, 2.5, 4, 6, 8, 12 and 24 h post-dosing. The blood was then placed in centrifuge tubes pre-treated with heparin sodium, centrifuged at 3000 rpm for 10 min, and the resulting supernatant was stored in a refrigerator at −20 °C. The plasma samples underwent processing as per the outlined “Sample Preparation” methods and were analyzed using the specified procedures under “Instrument Conditions” to ascertain XMD12 concentration in the rat plasma at various time points. Utilizing DAS 3.2.8 (BioGuider Co., Shanghai, China), pharmacokinetic software facilitated data processing, computation of pertinent pharmacokinetic parameters, and the creation of blood concentration–time curves for the drug.

[4] = Stability of XMD12 QC samples in rat plasma and liver homogenate; format: in vitro ADME
Source text: Our analytical approach adheres to a comprehensive set of validation procedures in accordance with the recommendations outlined in the U.S. Food and Drug Administration’s Bioanalytical Method Validation Guidance (USFDA, 2018). These validation steps encompass a range of critical factors, including method specificity, linearity, sensitivity, carryover effect, accuracy, precision, matrix effect, recovery, dilution integrity, and stability. In assessing the method’s selectivity, we initiated the process by comparing chromatograms obtained from various sample sources. These sources included blank rat plasma, blank rat serum samples spiked with a mixture of standards, and rat plasma samples sourced from pharmacokinetic studies conducted on rats. This evaluation concurrently aided us in identifying and addressing any potential interferences that may occur within the acquisition window of XMD12 and the internal standard (IS). To evaluate linearity, a series of XMD12 concentrations was introduced into blank plasma, allowing us to establish a linear regression equation. The calibration curve (n = 5) was constructed by plotting the ratio of peak areas of XMD12 to IS (y-axis) against the nominal concentration ratio of XMD12 to IS (x-axis), followed by subsequent linear regression analysis. The lower limit of quantification (LLOQ) was defined as the lowest concentration point on the calibration curve that guarantees reliable quantification while maintaining accuracy within the range of 80–120% and precision below 20%. We conducted assessments of intra-day and inter-day precision and accuracy by performing six replicate tests on quality control (QC) samples at concentrations of 3, 120, and 1500 ng/mL over both a single day and a span of three days. Matrix effects and extraction recovery were evaluated through a post-extraction addition approach. Furthermore, we conducted a study on the stability of QC samples with high, medium, and low concentrations under four distinct conditions. […]

[5] = Urine and feces excretion study after gastric gavage; format: in vivo, Sprague-Dawley rats; conditions: gastric gavage 20 mg/kg
Procedure: Five male SD rats were housed individually in metabolic cages for adaptation for a day. During this period, urine and feces were collected as blank samples. The following day, the rats were orally administered XMD12 at a dose of 20 mg/kg by gastric gavage. Urine and feces samples were then collected at intervals of 0–4 h, 4–8 h, 8–12 h, 12–24 h, and 24–36 h post-administration. Measurements of volume and weight were recorded for each sample. Employing the outlined procedures, these samples underwent processing and analysis to determine the presence of XMD12 across different time spans within the collected urine and feces samples.

[6] = Tissue distribution study after gastric gavage; format: in vivo, Sprague-Dawley rats; conditions: gastric gavage 20 mg/kg
Procedure: Following a 12-h fasting period, 25 SD rats were randomly divided into 5 groups, each comprising 5 rats. These rats were administered the drug at a dosage of 20 mg/kg through gastric gavage. […] Blood was drawn from the abdominal aorta to ensure minimal residual blood within the rats, followed by euthanasia. A variety of tissues including the heart, liver, spleen, lungs, kidneys, stomach, small intestine, fat, muscles, and brain were then harvested. After weighing, all samples were stored in a freezer at −80 °C. The subsequent processing and analysis followed the described methods, aiming to determine the concentration of XMD12 in each tissue sample at different time intervals.

plasma protein = conditions: cited from earlier work
[7] = p.o. 10 mg∙kg^−1 (gastric gavage), SD rats

SMILES: CN(C)C(=O)c1cc2cnc(Nc3ccc(N4CCNCC4)cn3)nc2n1C1CCCC1 [Ribociclib]
- oral bioavailability ([1]; human, in vivo): 65.8%
- Tmax ([1]; human, in vivo): 1 to 5 h
- elimination half-life ([1]; human, in vivo): 30 to 55 h
- fecal excretion ([1]; human, in vivo): 69.1%
- volume of distribution (Vd) ([1]; human, in vivo): 1090 L

SMILES: COc1cc(F)ccc1-c1nc(Nc2cccc(N3CCOCC3)c2)ncc1F [XMD12]
- parent compound remaining ([2]; 5 min incubation, 37 °C, NADPH): 68.8%
- parent compound remaining ([2]; 45 min incubation): 20%
- metabolic rate ([2]; 120 min): 87%
- parent compound remaining ([2]; 120 min incubation): 13%
- intrinsic clearance (CLint) ([2]; CLint = k × (V/P), V 500 μL, P 0.1 mg): 98.5 μL/min/mg protein
- degradation rate constant (k) ([2]; regression of ln remaining percentage vs incubation time): 0.0197 min⁻¹
- plasma concentration ([3]; gastric gavage 10 mg/kg, within 8 h): approaching the LLOQ
- plasma concentration ([3]; i.v. 2 mg/kg, by 8 h): below the lower limit of quantification (LLOQ)
- plasma concentration ([3]; i.v. 2 mg/kg, within 30 min): 59.88 ng/mL
- AUC0-t ([3]; i.v. 2 mg∙kg^−1, SD rats): 357.21 ± 66.60 ng·h/mL
- AUC0-∞ ([3]; i.v. 2 mg∙kg^−1, SD rats): 360.03 ± 66.00 ng·h/mL
- CL ([3]; i.v. 2 mg∙kg^−1, SD rats): 94.8 ± 15.8 mL/min/kg
- Cmax ([3]; i.v. 2 mg∙kg^−1, SD rats): 827.00 ± 191.30 ng/mL
- MRT0-t ([3]; i.v. 2 mg∙kg^−1, SD rats): 0.74 ± 0.08 h
- Tmax ([3]; i.v. 2 mg∙kg^−1, SD rats): 0.083 h
- V ([3]; i.v. 2 mg∙kg^−1, SD rats): 12.29 ± 3.98 L/kg
- t1/2 ([3]; i.v. 2 mg∙kg^−1, SD rats): 1.47 ± 0.29 h
- peak concentration after gastric gavage relative to intravenous levels ([3]; p.o. 10 mg/kg vs i.v. 2 mg/kg): below 5%
- AUC0-t [3, 7]: 117.78 ± 28.97 ng·h/mL
- AUC0-∞ [3, 7]: 120.06 ± 30.19 ng·h/mL
- CL [3, 7]: 1444 ± 278.7 mL/min/kg
- Cmax [3, 7]: 38.26 ± 10.90 ng/mL
- MRT0-t [3, 7]: 2.475 ± 0.344 h
- Tmax [3, 7]: 1.300 ± 0.758 h
- V [3, 7]: 150.59 ± 34.37 L/kg
- t1/2 [3, 7]: 1.21 ± 0.16 h
- F (bioavailability) ([3]; p.o. 10 mg∙kg^−1 vs i.v. 2 mg∙kg^−1, SD rats): 6.67%
- plasma half-life ([3]; rat plasma, route not stated): 1 h
- stability, Accuracy ([4]; liver, nominal 30.0 ng∙mL^−1, 6 h at room temperature): 100.93%
- stability, Accuracy ([4]; liver, nominal 30.0 ng∙mL^−1, 15 d, −80 °C): 97.53%
- stability, Accuracy ([4]; liver, nominal 30.0 ng∙mL^−1, autosample at ambient temperature for 6 h): 100.80%
- stability, Accuracy ([4]; liver, nominal 30.0 ng∙mL^−1, freeze–thaw (3 circles)): 100.47%
- stability, Accuracy ([4]; liver, nominal 800.0 ng∙mL^−1, 6 h at room temperature): 101.93%
- stability, Accuracy ([4]; liver, nominal 800.0 ng∙mL^−1, 15 d, −80 °C): 99.40%
- stability, Accuracy ([4]; liver, nominal 800.0 ng∙mL^−1, freeze–thaw (3 circles)): 99.78%
- stability, Accuracy ([4]; liver, nominal 1600.0 ng∙mL^−1, 6 h at room temperature): 101.56%
- stability, Accuracy ([4]; liver, nominal 1600.0 ng∙mL^−1, 15 d, −80 °C): 101.63%
- stability, Accuracy ([4]; liver, nominal 1600.0 ng∙mL^−1, autosample at ambient temperature for 6 h): 100.94%
- stability, Accuracy ([4]; liver, nominal 1600.0 ng∙mL^−1, freeze–thaw (3 circles)): 97.75%
- stability, Accuracy ([4]; plasma, nominal 5 ng∙mL^−1, 6 h at room temperature): 105.58%
- stability, Accuracy ([4]; plasma, nominal 5 ng∙mL^−1, 15 d, −80 °C): 94.20%
- stability, Accuracy ([4]; plasma, nominal 5 ng∙mL^−1, autosample at ambient temperature for 6 h): 92.16%
- stability, Accuracy ([4]; plasma, nominal 5 ng∙mL^−1, freeze–thaw (3 circles)): 97.10%
- stability, Accuracy ([4]; plasma, nominal 90 ng∙mL^−1, 6 h at room temperature): 108.60%
- stability, Accuracy ([4]; plasma, nominal 90 ng∙mL^−1, 15 d, −80 °C): 93.76%
- stability, Accuracy ([4]; plasma, nominal 90 ng∙mL^−1, autosample at ambient temperature for 6 h): 92.44%
- stability, Accuracy ([4]; plasma, nominal 90 ng∙mL^−1, freeze–thaw (3 circles)): 107.22%
- stability, Accuracy ([4]; plasma, nominal 800 ng∙mL^−1, 6 h at room temperature): 110.80%
- stability, Accuracy ([4]; plasma, nominal 800 ng∙mL^−1, 15 d, −80 °C): 102.22%
- stability, Accuracy ([4]; plasma, nominal 800 ng∙mL^−1, autosample at ambient temperature for 6 h): 90.02%
- stability, Accuracy ([4]; plasma, nominal 800 ng∙mL^−1, freeze–thaw (3 circles)): 106.80%
- interval of rapid fecal elimination [5]: 12 to 24 h
- peak urinary elimination window [5]: 12 to 24 h
- cumulative fecal excretion (of the administered dose) ([5]; 0–36 h): 62.36% ± 19.97%
- cumulative urinary excretion rate ([5]; 0–36 h, 20 mg/kg): 0.0068% and 0.0068% ± 0.0028%
- time to peak drug concentration in gastrointestinal tissues (stomach and intestines) [6]: 0.5 to 1 h
- brain concentration ([6]; 1 h): 930.17 ± 762.76 ng/g
- liver peak concentration ([6]; 1 h, 20 mg/kg): 24,768 ± 2436.62 ng/g and 24,768 ng/g
- liver concentration ([6]; 5 h): 2241.9 ± 1193.07 ng/g
- liver concentration as percent of the peak value ([6]; 5 h post-dosing): 9%
- concentration in all tissues as percent of peak levels ([6]; by 5 h): below 10%

SMILES: CCN1CCN(Cc2ccc(Nc3ncc(F)c(-c4cc(F)c5nc(C)n(C(C)C)c5c4)n3)nc2)CC1 [Abemaciclib]
- plasma protein binding (plasma protein; plasma): 96.3%
- elimination half-life [1]: 17 to 38 h
- oral bioavailability ([1]; human, in vivo): 45%
- Tmax ([1]; human, in vivo): under 8 h
- fecal excretion ([1]; reported in humans): 81%

SMILES: CC(=O)c1c(C)c2cnc(Nc3ccc(N4CCNCC4)cn3)nc2n(C2CCCC2)c1=O [Palbociclib]
- plasma protein binding (plasma protein): 85.3%
- Tmax [1]: 6 to 12 h
- elimination half-life [1]: 24 to 34 h
- volume of distribution [1]: ~2800 L
- volume of distribution (Vd) ([1]; reported in humans): ~ 2800 L
